pEC50: −log10 of the molar value.

In patent US6992215B2, “Thiol-based NAALADase inhibitors” (Guildford Pharmaceuticals Inc., priority 2001, dated 2006) one finds EC50 data, which are given here for 21 compounds.

The test system of this experiment is cortical cell cultures. Kind of experiment: In Vitro Assay on Ischemia (glutamate toxicity after potassium cyanide / 2-deoxyglucose insult). The class given is cell-based. As to conditions: concentration required to cause a 50% reduction in glutamate toxicity following an ischemic insult. How it is done: To examine the in vitro effect of the inventive compounds on ischemia, cortical cell cultures were treated with various compounds of this invention during an ischemic insult utilizing potassium cyanide and 2-deoxyglucose, and for one hour thereafter. For a description of the experimental method used, see Vornov et al., J. Neurochem., Vol. 65, No. 4, pp. […] (1995).
For orientation: pEC50 means −log10 of the EC50, conventionally taken in molar units. High values mean a small EC50, low ones a large EC50. In turn, `O=C(O)c1ccc(CC(CCCS)C(=O)O)cc1` (stereo not drawn) [Compound 6, 4-carboxy-alpha-(3-mercaptopropyl)-benzenepropanoic acid] showed a negative-log EC50 (pEC50) of 7.75.

For the compound `CS(=O)(=O)c1ccc(CC(CCCS)C(=O)O)cc1` (stereo not drawn) [Compound 7, alpha-(3-mercaptopropyl)-4-(methylsulfonyl)-benzenepropanoic acid], the pEC50 is 5.97.

For `N#Cc1ccccc1CC(CCCS)C(=O)O` (stereo not drawn) [Compound 8, 2-cyano-alpha-(3-mercaptopropyl)-benzenepropanoic acid], the pEC50 was 6.88.

With `O=C(O)c1cc(CC(CCCS)C(=O)O)cc(C(=O)O)c1` (stereo not drawn) [Compound 9, 5-(2-carboxy-5-mercaptopentyl)-1,3-benzenedicarboxylic acid], the negative-log EC50 (pEC50) is 6.98. `O=C(O)c1ccc(Cl)c(CC(CCCS)C(=O)O)c1` (stereo not drawn) [Compound 10, 5-carboxy-2-chloro-alpha-(3-mercaptopropyl)-benzenepropanoic acid] gave a pEC50 of 8.11. `O=C(O)c1cc(CC(CCCS)C(=O)O)ccc1F` (stereo not drawn) [Compound 11, 3-carboxy-4-fluoro-alpha-(3-mercaptopropyl)-benzenepropanoic acid] showed a pEC50 of 7.81. For the compound `N#Cc1ccccc1-c1ccc(CC(CCCS)C(=O)O)cc1` (stereo not drawn) [Compound 12, 4-(2-cyanophenyl)-alpha-(3-mercaptopropyl)-benzenepropanoic acid], the pEC50 is 6.73.

`NC(=O)c1ccccc1CC(CCCS)C(=O)O` (stereo not drawn) [Compound 13, 2-(aminocarbonyl)-alpha-(3-mercaptopropyl)-benzenepropanoic acid] gave a negative logarithm of the EC50 (pEC50) of 5.00. Regarding `O=C(O)c1cccc(OC(CCCS)C(=O)O)c1` (stereo not drawn) [Compound 14, 3-(1-carboxy-4-mercaptobutoxy)-benzoic acid], the negative logarithm of the EC50 (pEC50) is 7.80. As for `O=C(O)C(CCCS)Oc1ccccc1` (stereo not drawn) [Compound 15, 5-mercapto-2-phenoxy-pentanoic acid], the pEC50 was 6.00.

Turning to `COc1cc(OC)cc(OC(CCCS)C(=O)O)c1` (stereo not drawn) [Compound 16, 2-(3,5-dimethoxyphenoxy)-5-mercapto-pentanoic acid], the pEC50 is 6.57.

Regarding `O=C(O)Cc1cccc(OC(CCCS)C(=O)O)c1` (stereo not drawn) [Compound 20, 3-(1-carboxy-4-mercaptobutoxy)-benzeneacetic acid], the pEC50 was 7.41. Take `O=C(O)Cc1ccc(OC(CCCS)C(=O)O)cc1` (stereo not drawn) [Compound 21, 4-(1-carboxy-4-mercaptobutoxy)-benzeneacetic acid]: the pEC50 was 7.94. In the case of `CC(=O)c1cccc(OC(CCCS)C(=O)O)c1` (stereo not drawn) [Compound 23, 2-(3-acetylphenoxy)-5-mercapto-pentanoic acid] it was 7.68; in that of `CC(=O)Nc1ccc(CC(CCCS)C(=O)O)cc1` (stereo not drawn) [Compound 26, 4-(acetylamino)-alpha-(3-mercaptopropyl)-benzenepropanoic acid], 5.74. In the case of `COc1ccc(C(=O)O)cc1OC(CCCS)C(=O)O` (stereo not drawn) [Compound 27, 3-(1-carboxy-4-mercaptobutoxy)-4-methoxy-benzoic acid], the pEC50 is 6.81. `O=C(O)Cc1ccc(CC(CCCS)C(=O)O)cc1` (stereo not drawn) [Compound 28, 4-(carboxymethyl)-alpha-(3-mercaptopropyl)-benzenepropanoic acid] showed a pEC50 of 7.32. In the case of `O=C(O)c1ccc(OC(CCCS)C(=O)O)cc1` (stereo not drawn) [Compound 30, 4-(1-carboxy-4-mercaptobutoxy)-benzoic acid] it was 6.40; in that of `O=C(O)c1cccc(CC(CCCS)C(=O)O)c1Cl` (stereo not drawn) [Compound 31, 3-carboxy-2-chloro-alpha-(3-mercaptopropyl)-benzenepropanoic acid], 7.51. With `O=C(O)c1cc(CC(CCCS)C(=O)O)ccc1Cl` (stereo not drawn) [Compound 32, 3-carboxy-4-chloro-alpha-(3-mercaptopropyl)-benzenepropanoic acid] the figure was 8.15; with `O=C(O)c1ccc(Cl)c(OC(CCCS)C(=O)O)c1` (stereo not drawn) [Compound 33, 3-(1-carboxy-4-mercaptobutoxy)-4-chloro-benzoic acid], 6.96.
